US6803203B1, “DNA-PK assay” (Brookhaven Science Associates, priority 1993, dated 2004)
“Also recorded” adds a separate entry of the source. No end group written: not given here.

Columns and labels:
DNA-PK [1] = biological target: T1, DNA-PK (Homo sapiens, UniProt P78527); assay: Phosphorylation of synthetic peptides by purified DNA-PK (phosphocellulose paper binding method); format: biochemical
T1 construct: DNA-PK was purified from HeLa cells; endogenous in cells; host or cells: HeLa S3 cells; the endogenous enzyme was purified in house by chromatography
Protocol: Phenylmethylsulfonyl fluoride was added to the S10 (10,000×g) supernatant as a powder to 0.5 mM. DNA-PK activity was found in the 100,000×g (ribosomal) pellet. DNA-PK preparations typically were made from 200 ml of S10 supernatant that had been derived from approximately 10^10 cells. All steps were performed at 4° C. unless indicated otherwise.
Phosphorylation reactions were performed in a 20- or 40-μl final volume as previously described by Chen, et al., J. Virol., 10:5131-5140 (1991) and Lees-Miller, et al., Mol. Cell. […] In particular, in addition to synthetic peptide substrates or protein substrates, the assays contained 50 mM HEPES (pH 7.5), 100 mM KCl, 10 mM MgCl2, 2 mM EGTA, 0.1 mM EDTA and 0.125 mM ATP containing [^32P]ATP at 0.2 mCi/ml. […] Assays were started by adding 1 μl of kinase sample. Incubations were at 30° C. for 7 min.
For determinations of kinetic constants, the ATP concentration was 0.5 mM. When present, hsp90 was included at 0.5 mg/ml. Assay mixtures were preincubated at 30° C. for 2 min before addition of 0.1 to 0.5 μg (protein) of the DNA-PK preparation.
In particular, kinase reactions were stopped by adding an equal volume of 30% acetic acid, and portions of the acidified reaction were spotted on 2- by 2-cm squares of P-81 paper (Whatman, Inc., Clifton, N.J.). […] The P-81 squares were then transferred to scintillation vials containing 3.5 ml of water, and bound radioactivity was determined from the Cerenkov radiation. Enzyme activity was calculated from triplicate determinations, using the specific activity of the ATP and the protein concentration, which was determined by the Bio-Rad dye-binding assay (Bio-Rad (Bradford) Protein Assay Kit 1, Cat. No. 500-001, Bio-Rad Laboratories, Hercules, Calif.), using bovine serum albumin as the standard. […] The kinetic constants, Km and Vmax for each peptide sequence were calculated from plots of 1/[S] versus 1/V, the values reported are averages of at least two independent determinations.

DNA-PK [2] = biological target: T1, DNA-PK; assay: Phosphorylation of synthetic peptides in crude cell extracts (HeLa, T98G); format: biochemical; settings: for PO4 incorporated + DNA: + calf thymus DNA 10 μg/ml; for PO4 incorporated + DNA / PO4 incorporated − DNA: peptide 200 μM, 10 min 30° C.; for PO4 incorporated − DNA: without DNA
Protocol: (§1) To examine cells for DNA-PK content, extracts from HeLa, T98G human glioblastoma, and mouse L 929 cells were prepared by freeze-thaw lysis of cells harvested from five nearly confluent 9-cm-diameter plates as described in Example 1 and by Lees-Miller, et al. J. Biol. Chem., 264:2431-2437 (1989). T98G (ATCC CRL 1690) is a human glioblastoma cell line; L-929 (ATCC CCL 1) was derived from connective tissue of the NCTC 2071 mouse. Based on earlier work with natural protein substrates, it was expected that extracts of HeLa and T98G cells would contain a significant amount of DNA-PK activity while the extracts of mouse L 929 would contain little, if any, DNA-PK activity. Lysates in low-salt buffer were centrifuged at 10,000×g, to give a supernatant fraction (designated S10) and pellets (designated P10). The pellets were washed by resuspension in a high salt buffer (0.5 M KCl, 25 mM N-2-hydroxyethylpiperazine-N′-2-ethanesulfonic acid (HEPES; pH 7.5), 10 mM MgCl2, 1 mM dithiothreitol) and were sonicated. The sonicated suspension was centrifuged at 10,000×g for 10 min to give a second supernatant fraction (designated P10S), which was diluted with buffer lacking KCl to give a volume equal to that of the original supernatant (S10). Protein concentrations, determined using the Bio-Rad dye-binding assay, were as follows: HeLa S10, 3 mg/ml; HeLa P10S, 1 mg/ml; T98G S10, 3.5 mg/ml;,T98G P10S, 1 mg/ml; L-929 S10, 1 mg/ml; and L-929 P10S, 0.3 mg/ml. These extracts were assayed for the ability to phosphorylate (SEQ ID NOS: 11 and 20) with and without added calf thymus DNA.

DNA-PK [3] = assay: Phosphorylation of synthetic peptides in crude cell extracts (L 929); format: biochemical, mouse; settings: peptide 200 μM, 10 min 30° C.
Protocol: as §1

DNA-PK [4] = assay: DNA-PK activity in extracts of monkey cell lines; format: biochemical, African green monkey; settings: peptide 0.2 mM; for Specific Activity + DNA: + calf thymus DNA 10 μg/ml; for Specific Activity − DNA: no added DNA
Protocol: (§2) Extracts of additional primate and rodent cells were tested for the presence of DNA-PK activity in accordance with the method of the present invention. The DNA-PK activity was determined using the methods described in Examples 1, 4 and 5 for seven human cell lines, two African green monkey kidney lines, and six rodent cell lines.
(§3) Extracts were prepared essentially as described in Example 10. Cells were lysed by freezing and thawing in hypotonic buffer; soluble (S10) “cytoplasmic” and insoluble in (P10) “nuclear” fractions were made by centrifuging lysates at 10,000×g for 10 min. The insoluble fraction was extracted with buffer containing 0.5 M KCl, which releases any DNA-PK that is bound to DNA. After centrifugation of the salt-washed pellet fraction, which removed the remaining insoluble material, the salt extract (P10S) was diluted and assayed as previously described.
(§4) Protein concentrations, determined using the Bio-Rad dye binding assay, were between 0.3 and 6 mg/ml. Extracts were incubated at 30° C. for 10 min with each peptide at 0.2 mM in the absence of added DNA (−DNA) or with 10 μg/ml calf thymus DNA (+DNA). After incubation the reaction mixtures were acidified with an equal volume of 30% acetic acid and spotted on to Whatman P-81 phosphocellulose paper (Whatman, Inc., Clifton, N.J.). The filters then were washed extensively in 15% acetic acid before the adsorbed radioactivity was quantitated as described in Example 5.
(§5) The amount of phosphate incorporated was calculated from the specific activity of the ATP. The rate of phosphate incorporation into the Ser-Gln-Glu peptide (Table 1) (SEQ ID NO: 11) in the presence of calf thymus DNA was approximately linear throughout the 10 minute reaction incubation period. Parallel assays were performed without added peptide, and these background values were subtracted to produce the activities that are shown in Table 3. Background values varied but, in all cases, were less than 0.2 nmol/min/mg (a few percent of the activity present in human cells). The specific activities were calculated from the total activity in the two fractions divided by the total protein in the two fractions. The percent of total DNA-PK activity in the S10 and P10S fractions was determined with peptide (SEQ ID NO: 11) in the presence of added calf thymus DNA. Extracts without substantial DNA-PK activity were examined for their ability to inhibit purified DNA-PK. Inhibitory activity was not detected.

DNA-PK [5] = assay: DNA-PK activity in extracts of rat cells; format: biochemical; settings: Rat REF, peptide 0.2 mM; for Specific Activity + DNA: + calf thymus DNA 10 μg/ml; for Specific Activity − DNA: no added DNA
Protocol: as §2, §3, §4, §5

DNA-PK [6] = assay: DNA-PK activity in extracts of hamster cell lines; format: biochemical, Chinese hamster; settings: peptide 0.2 mM; for Specific Activity + DNA: + calf thymus DNA 10 μg/ml; for Specific Activity − DNA: no added DNA
Protocol: as §2, §3, §4, §5

Sequence: EPPLSEQAFADLWKK [SEQ ID NO: 20]
- substrate activity for DNA-PK (in words) (DNA-PK [1]): negligible substrate activity; also recorded: not phosphorylated by DNA-PK
- PO4 incorp. (DNA-PK [1]; each peptide at 200 μM, calf thymus DNA 10 μg/ml, 30° C.): 0 pmol/min/μg of DNA-PK
- PO4 incorporated + DNA (DNA-PK [2]; HeLa, P10S): 0.0 nmol/min/ml of extract
- PO4 incorporated − DNA (DNA-PK [2]; HeLa, P10S): 0.0 nmol/min/ml of extract
- PO4 incorporated + DNA (DNA-PK [2]; HeLa, S10): 0.3 nmol/min/ml of extract
- PO4 incorporated − DNA (DNA-PK [2]; HeLa, S10): 0.0 nmol/min/ml of extract
- PO4 incorporated + DNA (DNA-PK [2]; T98G, P10S): 0.0 nmol/min/ml of extract
- PO4 incorporated − DNA (DNA-PK [2]; T98G, P10S): 0.0 nmol/min/ml of extract
- PO4 incorporated + DNA (DNA-PK [2]; T98G, S10): 0.04 nmol/min/ml of extract
- PO4 incorporated − DNA (DNA-PK [2]; T98G, S10): 0.02 nmol/min/ml of extract
- phosphorylation by crude cell extracts (in words) (DNA-PK [2]; all extracts of Table 2 (HeLa, T98G, L 929)): poorly phosphorylated, if at all
- PO4 incorporated + DNA (DNA-PK [3]; P10S, + calf thymus DNA 10 μg/ml): 0.0 nmol/min/ml of extract
- PO4 incorporated − DNA (DNA-PK [3]; P10S, without DNA): 0.0 nmol/min/ml of extract
- PO4 incorporated + DNA (DNA-PK [3]; S10, + calf thymus DNA 10 μg/ml): 0.0 nmol/min/ml of extract
- PO4 incorporated − DNA (DNA-PK [3]; S10, without DNA): 0.0 nmol/min/ml of extract
- Specific Activity + DNA (DNA-PK [4]; Monkey COS-1, P10S): 0.24 nmol PO4/min/mg protein
- Specific Activity − DNA (DNA-PK [4]; Monkey COS-1, P10S): 0.0 nmol PO4/min/mg protein
- Specific Activity + DNA (DNA-PK [4]; Monkey COS-1, S10): 0.02 nmol PO4/min/mg protein
- Specific Activity − DNA (DNA-PK [4]; Monkey COS-1, S10): 0.0 nmol PO4/min/mg protein
- Specific Activity + DNA (DNA-PK [4]; Monkey CV-1, P10S): 0.08 nmol PO4/min/mg protein
- Specific Activity − DNA (DNA-PK [4]; Monkey CV-1, P10S): 0.08 nmol PO4/min/mg protein
- Specific Activity + DNA (DNA-PK [4]; Monkey CV-1, S10): 0.05 nmol PO4/min/mg protein
- Specific Activity − DNA (DNA-PK [4]; Monkey CV-1, S10): 0.0 nmol PO4/min/mg protein
- Specific Activity + DNA (DNA-PK [5]; P10S): 0.0 nmol PO4/min/mg protein
- Specific Activity − DNA (DNA-PK [5]; P10S): 0.03 nmol PO4/min/mg protein
- Specific Activity + DNA (DNA-PK [5]; S10): 0.0 nmol PO4/min/mg protein
- Specific Activity − DNA (DNA-PK [5]; S10): 0.02 nmol PO4/min/mg protein
- Specific Activity + DNA (DNA-PK [6]; Hamster CHO, P10S): 0.06 nmol PO4/min/mg protein
- Specific Activity − DNA (DNA-PK [6]; Hamster CHO, P10S): 0.0 nmol PO4/min/mg protein
- Specific Activity + DNA (DNA-PK [6]; Hamster CHO, S10): 0.01 nmol PO4/min/mg protein
- Specific Activity − DNA (DNA-PK [6]; Hamster CHO, S10): 0.0 nmol PO4/min/mg protein
- Specific Activity + DNA (DNA-PK [6]; Hamster V79, P10S): 0.05 nmol PO4/min/mg protein
- Specific Activity − DNA (DNA-PK [6]; Hamster V79, P10S): 0.05 nmol PO4/min/mg protein
- Specific Activity + DNA (DNA-PK [6]; Hamster V79, S10): 0.0 nmol PO4/min/mg protein
- Specific Activity − DNA (DNA-PK [6]; Hamster V79, S10): 0.0 nmol PO4/min/mg protein
